Tests used:
Huvec = assay: bFGF Huvec proliferation; type: cell-based, human; settings: Homo sapiens, HUVEC
PDGFRβ = biological target: T1, PDGFRβ (Homo sapiens, UniProt P09619); assay: PAE-PDGFRβ phosphorylation in PAE-PDGFRB cells assay; type: cell-based; settings: PAE cells overexpressing human PDGFRβ, PDGF-BB stimulated; read-out: PAE PDGFR autophos IC50 (nM) AVG
T1 construct: expressed in transfected cells; host or cells: porcine aorta endothelial (PAE)-PDGFRβ cells
How it was run: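 PAE cells overexpressing human PDGFRβ, serum-starved 16 h (0.1% FBS), were given compound for 1 h at 37 °C (0.5% DMSO) and then stimulated with 1 μg/mL PDGF-BB plus 2 mM Na3VO4 for 8 min. Receptor autophosphorylation was read by capture ELISA (HRP-PY20, TMB, 450 nm); IC50 from 4-parameter fit.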

[1] = tested on: human umbilical vein endothelial cells (HUVEC); assay: HUVEC+VEGF proliferation assay; type: cell-based; settings: Homo sapiens, HUVEC; VEGF 6 ng/mL, 72 h, MTT
How it was run: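 Exponentially growing passage 3–4 HUVEC were starved 24 h in F12K + 1% FBS, given compound (0.1% final DMSO) 1 h before 6 ng/mL final VEGF, then cultured 72 h. Proliferation was read as MTT dye reduction (4 h exposure), absorbance at 595 nm.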

[2] = biological target: T2, unphosphorylated VEGF-R2Δ50 (FLVK) (Homo sapiens, UniProt P35968, DEL940-989/E990V); assay: VEGF-R2 coupled spectrophotometric assay, unphosphorylated VEGF-R2Δ50 (FLVK); type: biochemical; settings: unphosphorylated VEGF-R2Δ50; for inhibition at 0.05 µM: 50 nM compound, read-out: FLVK (% inh @ 50 nM)
T2 construct: VEGF-R2Δ50 contains residues 806–939 and 990–1171; made in house; host or cells: baculovirus/insect cell system
How it was run: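 Baculovirus-expressed human VEGF-R2Δ50 (kinase insert partly deleted, E990V), unphosphorylated form; ADP production coupled via PK/LDH to NADH oxidation, read at 340 nm. 20 mM poly(E4Y1), 3 mM ATP, 60 mM MgCl2, 2 mM MnCl2, 200 mM HEPES pH 7.5; 5–40 nM enzyme. Ki from Morrison tight-binding fit.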

T1 sequence (P09619 33-1106): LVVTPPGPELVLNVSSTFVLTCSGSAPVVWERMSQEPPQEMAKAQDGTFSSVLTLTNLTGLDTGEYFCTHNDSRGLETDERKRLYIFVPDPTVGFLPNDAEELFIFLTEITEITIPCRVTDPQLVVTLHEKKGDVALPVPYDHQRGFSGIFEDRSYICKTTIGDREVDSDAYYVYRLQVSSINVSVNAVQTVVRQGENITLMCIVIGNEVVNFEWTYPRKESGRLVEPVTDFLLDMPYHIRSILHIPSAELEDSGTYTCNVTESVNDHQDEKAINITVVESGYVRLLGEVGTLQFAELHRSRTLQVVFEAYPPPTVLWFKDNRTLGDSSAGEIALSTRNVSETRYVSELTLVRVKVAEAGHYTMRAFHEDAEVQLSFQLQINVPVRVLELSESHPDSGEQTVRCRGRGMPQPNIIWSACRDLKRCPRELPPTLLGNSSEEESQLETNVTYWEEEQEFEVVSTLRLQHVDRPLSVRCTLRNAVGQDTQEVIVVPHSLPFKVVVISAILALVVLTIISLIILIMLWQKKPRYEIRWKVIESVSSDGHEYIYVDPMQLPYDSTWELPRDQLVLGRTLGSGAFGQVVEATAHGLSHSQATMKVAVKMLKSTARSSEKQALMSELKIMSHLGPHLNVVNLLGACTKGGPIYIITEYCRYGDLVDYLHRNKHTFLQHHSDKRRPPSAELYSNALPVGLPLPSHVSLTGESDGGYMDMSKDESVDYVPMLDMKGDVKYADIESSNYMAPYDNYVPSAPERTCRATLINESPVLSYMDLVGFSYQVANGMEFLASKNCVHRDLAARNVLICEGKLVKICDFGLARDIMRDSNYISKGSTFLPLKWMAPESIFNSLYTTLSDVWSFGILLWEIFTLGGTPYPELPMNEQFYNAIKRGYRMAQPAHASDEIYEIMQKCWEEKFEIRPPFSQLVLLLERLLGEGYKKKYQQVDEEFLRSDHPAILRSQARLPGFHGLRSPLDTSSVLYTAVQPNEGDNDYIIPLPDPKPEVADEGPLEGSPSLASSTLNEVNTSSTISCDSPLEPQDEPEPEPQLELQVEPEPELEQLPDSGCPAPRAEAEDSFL
T2 sequence (P35968 with tags, fused parts or gaps DEL940-989/E990V limits assumed): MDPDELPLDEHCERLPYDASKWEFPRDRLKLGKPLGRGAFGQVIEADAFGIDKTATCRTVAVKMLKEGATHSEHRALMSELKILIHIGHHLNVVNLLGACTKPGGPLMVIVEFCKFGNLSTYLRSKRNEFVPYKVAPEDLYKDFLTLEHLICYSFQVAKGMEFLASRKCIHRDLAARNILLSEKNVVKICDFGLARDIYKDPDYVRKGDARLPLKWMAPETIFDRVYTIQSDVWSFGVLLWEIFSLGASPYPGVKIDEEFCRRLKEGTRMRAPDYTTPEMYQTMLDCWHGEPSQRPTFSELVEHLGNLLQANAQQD

| IC50 (PDGFRβ) [nM] | inhibition at 0.05 µM [2] [%] | Ki [2] [µM] | Structure (SMILES) | IC50 (Huvec) [nM] | IC50 [1] [nM] |
| --- | --- | --- | --- | --- | --- |
| 21 | 91 |  | CNC(=O)c1c(C)n(C)c2cc(Oc3ccnc4cc(-c5ccc(OC)cn5)sc34)ccc12 [Example 48, 6-[2-(5-Methoxy-pyridin-2-yl)-thieno[3,2-b]pyridin-7-yloxy]-1,2-dimethyl-1H-indole-3-carboxylic acid methylamide] | 239 | 0.94 |
| 16.6 | 84 | 0.00262 | CNC(=O)c1c(Cl)n(C)c2cc(Oc3ccnc4cc(-c5nc(C(C)(C)O)cs5)sc34)ccc12 [Example 75, 2-Chloro-6-{2-[4-(1-hydroxy-1-methyl-ethyl)thiazol-2-yl]-thieno[3,2-b]pyridin-7-yloxy}-1-methyl-1H-indole-3-carboxyllc acid methylamide] | 10000 | 1.4 |
| 220 | 94 | 0.0002 | Cc1sc2cc(Oc3ccnc4cc(C(=O)N5CC[C@@H](O)C5)sc34)ccc2c1C(=O)NC1CC1 [Example 121, 6[(2-{[(3R)-3-Hydroxypyrrolidin-1-yl]carbonyl}thieno[3,2-b]pyridin-7-yl)oxy]-2-methylbenzo[b]thiophene-3-carboxylic acid cyclopropylamide] | 100 | 0.24 |

Continued, compound first:

| Structure (SMILES) | IC50 (PDGFRβ) [nM] | inhibition at 0.05 µM [2] [%] | Ki [2] [µM] | IC50 (Huvec) [nM] | IC50 [1] [nM] |
| --- | --- | --- | --- | --- | --- |
| CNC(=O)c1c(C)oc2cc(Oc3ccnc4cc(C(=O)N5CCC[C@H]5CO)sc34)ccc12 [Example 80, 6-(2-[(S)-2-(hydroxymethyl)pyrrolidine-1-carbonyl]thieno[3,2-b]pyridin-7-yloxy)-2-methyl-benzofuran-3-carboxylic acid methylamide] | 31 | 95 | 0.000438 | 60 | 0.239 |
| CNC(=O)c1c(C)n(C)c2cc(Oc3ccnc4cc(-c5nc(C(C)(C)O)cs5)sc34)ccc12 [Example 40, 6-{2-[4(1-Hydroxy-1-methyl-ethyl)-thiazol-2-yl]-thieno[3,2-b]pyridin-7-yloxy}-1,2-dimethyl-1H-indole-3-carboxylic acid methylamide] | 24.2 | 77 | 0.00295 | 7800 | 1.12 |
| CCc1oc2cc(Oc3ccnc4cc(C(=O)N5CC[C@@H](O)C5)sc34)ccc2c1C(=O)NC [Example 95, 2-Ethyl-6-[2-(3-hydroxy-pyrrolidine-1-carbonyl)-thieno[3,2-b]pyridin-7-yloxy]-benzofuran-3-carboxylic acid methylamide] | 235 | 89 | 0.000848 | 96 | 10 |
| Cc1c(C(=O)Nc2ccccn2)c2ccc(Oc3ccnc4cc(-c5nccs5)sc34)cc2n1C [Example 70, 1,2-Dimethyl-6-(2-thiazol-2-yl-thieno[3,2-b]pyridin-7-yloxy)-1H-indole-3-carboxylic acid pyridin-2-ylamide] | 47.1 | 95 | 0.00043 | 3980 | 0.537 |
| Cc1oc2cc(Oc3ccnc4ccsc34)ccc2c1C(=O)NCCc1c[nH]c2cc(F)ccc12 [Example 104, 2-Methyl-6-(thieno[3,2-b]pyridin-7-yloxy)-benzofuran-3-carboxylic acid [2-(6-fluoro-1H-indol-3-yl)ethyl]-amide] | 164 | 100 |  | 227 | 8.4 |
